The subject of one assay is HCT-15. The assay can be described thus: MTT cell viability assay on HCT-15 (supplement). The following applies: 20 to 80 μM, 24 or 48 h, supplementary figure. The format is cell-based. As to the method:
Figure S11. TFBPC and glycyrrhizic acid micelles (GAM)-encapsulated TFBPC […]
NSG mice (N = 16) with implantation of MDA-MB-231 cells on the left flank were intraperitoneally administrated with PBS (5 mL/kg), TFBPC (5 mg/kg) or glycyrrhizic acid micelles (GAM)-encapsulated TFBPC (5 mg/kg) once per week and four times total in the whole course of treatment. Tumor volume of each animal was measured by caliper for monitoring its tumor growth and then sacrificed 49 days after the first dose of treatment. Mean ± SD. **** p < 0.0001. […]
colorectal cancers. Cisplatin and three platinum-based analogues, including (4, 4-3F) PtCl2 (A), TFBPC (B) and (4, 4-5F) PtCl2 (C), were assessed for cell viability using MTT assay. MDA-MB-231 breast cancers cells (D), COLO205 (E) and HCT-15 (F) colorectal cancer cells were given various concentrations of cisplatin or analogues ranging from 20 to 80 μM for 24 or 48 h. Results were shown in mean ± SD and statistically analyzed by one-way ANOVA and Tukey’s post hoc test. * p < 0.05, ** p < 0.01, *** p < 0.001, **** p < 0.0001. […]
A general note: Tetrazolium dyes change colour on reduction, which living cells bring about.

The test system of another assay is MDA-MB-231 cells. In words: Reactive oxygen species detection (DCF-DA, flow cytometry). It is filed as cell-based, human. The note with it: MDA-MB-231, 8 h. As to the method: DCF-DA is highly fluorescent and can label ROS for quantitative assessment using flow cytometer with excitation/emission at 485 nm/535 nm. To harvest and collect adherent and suspended cells, we first collected suspended cells from supernatant by centrifuging at 3000 rpm for 5 min at 4 °C and then adding trypsin to detach these adherent cells in the 6-well plate, followed by removing suspended cells via centrifugation. Both cell pellets after centrifugation were collected and re-suspended in PBS for subsequent quantitative analysis of ROS productions from cells treated either with CDDP or TFBPC using flow cytometer by gating the positive area in the histogram.
On the technique in general: A flow cytometer gives signals particle by particle.

Assay [1] addresses bovine serum albumin (BSA) (Bos taurus, UniProt P02769). The assay can be described thus: UV-Vis spectrum of BSA-drug complex. It is filed as binding. The note with it: 250 μM BSA in PBS pH 7.4, 20-640 μM. An excerpt:
Absorption between the wavelengths of 220 nm and 500 nm was detected by measuring absorbance every 2 nm via Thermo Varioskan Flash microplate reader (Thermo Fisher Scientific Inc., Waltham, MA, USA). The maximal absorbance of BSA at 278 nm was marked to highlight the spectrum in pure BSA without chemical intercalation.

The values below come from publication PMC9031226, “Preclinical Therapeutic Assessment of a New Chemotherapeutics [Dichloro(4,4’-Bis(2,2,3,3-Tetrafluoropropoxy) Methyl)-2,2’-Bipryridine) Platinum] in an Orthotopic Patient-Derived Xenograft Model of Triple-Negative Breast Cancers” (Pharmaceutics, 2022).

Sequence of bovine serum albumin (BSA) (P02769 25-607): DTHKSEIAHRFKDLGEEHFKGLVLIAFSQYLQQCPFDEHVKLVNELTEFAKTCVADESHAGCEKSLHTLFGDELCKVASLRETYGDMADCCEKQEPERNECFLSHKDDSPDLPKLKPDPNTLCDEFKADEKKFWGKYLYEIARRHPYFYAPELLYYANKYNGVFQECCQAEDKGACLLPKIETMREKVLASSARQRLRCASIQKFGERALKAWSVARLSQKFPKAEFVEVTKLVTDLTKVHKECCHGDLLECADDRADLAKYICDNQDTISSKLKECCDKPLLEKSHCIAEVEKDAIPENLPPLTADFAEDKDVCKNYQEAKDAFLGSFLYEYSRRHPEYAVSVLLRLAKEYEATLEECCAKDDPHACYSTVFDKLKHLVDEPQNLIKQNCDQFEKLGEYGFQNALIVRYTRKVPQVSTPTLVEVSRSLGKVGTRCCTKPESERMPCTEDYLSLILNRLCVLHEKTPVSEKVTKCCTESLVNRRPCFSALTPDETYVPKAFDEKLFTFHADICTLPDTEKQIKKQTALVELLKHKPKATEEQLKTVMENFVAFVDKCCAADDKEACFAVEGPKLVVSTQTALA

As for `FC(F)C(F)(F)COCc1ccnc(-c2cc(COCC(F)(F)C(F)F)ccn2)c1.[Cl][Pt][Cl]` [TFBPC], in the assay with HCT-15, the “cell viability of HCT-15 cells” value is reported as “statistically reduced cell viability”. The ROS production result in the assay with MDA-MB-231 cells was “apparent increase in ROS production”. Further, in assay [1], the “UV absorbance of BSA at 278 nm vs. concentration” value is reported as “positively correlated”.
